US4551547A, “Biocidal 2-aryl-1, 3-cyclopentanedione enol ester compounds” (Union Carbide Corporation, priority 1983, dated 1985)
Values after ≈ are worked out from the molar mass of the structure shown.

How the values were obtained:
[1] = tested on: two-spotted mite (adults and nymphal stages); test: Mite Foliage Spray Test (adults and nymphs); type: in vivo, Tetranychus urticae (Koch); set-up: key to Miticidal, Adult: A: Excellent Control; B: Partial Control; No Control; settings: for Miticidal, Adult: Table II, mortality count after four days; for LC50: Tetranychus urticae, foliar, Table III, ppm required for a 50 percent kill of mites, read-out: Miticidal LD50, Adult
Procedure: Suspensions of the test compounds were prepared by dissolving one gram of compound in 50 milliliters of acetone in which had been dissolved 0.1 gram (10 percent of the weight of compound) of an alkylphenoxyethanol sufactant, as an emulsifying or dispersing agent. The resulting solution was mixed into 160 milliliters of water to give roughly 200 milliliters of a suspension containing the compound in finely divided form. The thus prepared stock suspension contained 0.5 percent by weight of compound. The test concentrations employed in the tests described below were obtained by diluting the stock suspension with water. The test procedures were as follows: Adults and nymphal stages of the two-spotted mite (Tetranychus urticae (Koch)), reared on Tender-green beam plants at 80±5° F. and 50±5 percent relative humidity, were the tests organisms. Infested leaves from a stock culture were placed of the primary leaves of two bean plants six to eight inches in height, growing in a two-and-a-half inch clay pot. 150-200 Mites, a sufficient number for testing, transferred from the excised leaves to the fresh plants in a period of twenty-four hours. Following the twenty-four hour transfer period, the excised leaves were removed from the infested plants. The test compounds were formulated by diluting the stock suspension with water to provide suspensions containing the desired amount of test compound per million parts of final formulation. The potted plants (one pot per compound) were placed on a revolving turntable and sprayed with 100-110 milliliters of tests compound formulation by use of a DeVilbis spray gun set at 40 psi, air pressure. This application, which lasted 30 seconds, was sufficient to wet the plants to run-off. As a control, 100-110 milliliters of a water solution containing acetone and emulsifier in the same concentrations as the test compound formulation, but containing no test compound, were also sprayed on infested plants. The sprayed plants were held at 80±5° F. and 50±5 percent relative humidity for four days, after which, a mortality count of motile forms was made on the leaves of the test plants. Any individual which was capable of locomotion upon prodding was considered living. In these tests the pesticidal activity of the compounds against mites and mite eggs was rated as follows: Tests were conducted in accordance with the procedures given at pages 17 to 21 supra. The results are expressed in the same manner as used in Table II, except with respect to miticidal activity. For mite adult and mite egg comparison purposes, results are given in parts per million (ppm) required for a 50 percent kill of mites or eggs, respectively.

Bean = test: Post-emergent herbicidal test, bean; type: in vivo; set-up: key: 1: no perceptible injury; 2: intermediate degrees of injury; 3: intermediate degrees of injury; 4: intermediate degrees of injury; 5: the plant was dead; settings: 2500 parts per million, after ten days; for Post-emergent Herbicidal, Bean: Table II; for Post Emergent Herbicidal, Bean: Table III
Procedure: (§1) Suspensions of the test compounds were prepared by dissolving one gram of compound in 50 milliliters of acetone in which had been dissolved 0.1 gram (10 percent of the weight of compound) of an alkylphenoxyethanol sufactant, as an emulsifying or dispersing agent. The resulting solution was mixed into 160 milliliters of water to give roughly 200 milliliters of a suspension containing the compound in finely divided form. The thus prepared stock suspension contained 0.5 percent by weight of compound. The test concentrations employed in the tests described below were obtained by diluting the stock suspension with water. The test procedures were as follows:
(§2) Experiments were also conducted to determine the phytotoxicity of representative compositions with respect to healthy fresh plants. Solutions of the compounds were prepared as described above to provide a concentration of 2500 parts per million of the test compound. The test plants were sprayed in accordance with the procedure described above for the Mite Foliage Spray Test so as to deliver approximately 100 milliliters of test solutions to the leaves of each plant tested. The sprayed plants and controls were set aside for approximately one hour to allow the solutions to dry and were then placed in the greenhouse. After ten days the plants were visually inspected to determine the extent of foliage injury. A rating of 1 indicates no perceptible injury; 5 indicates the plant was dead and ratings of 2, 3 and 4 indicate intermediate degrees of injury based upon the number and extent to which leaves were injured.

Corn = test: Post-emergent herbicidal test, corn; type: in vivo; set-up: key: 1: no perceptible injury; 2: intermediate degrees of injury; 3: intermediate degrees of injury; 4: intermediate degrees of injury; 5: the plant was dead; settings: 2500 parts per million, after ten days; for Post-emergent Herbicidal, Corn: Table II; for Post Emergent Herbicidal, Corn: Table III
Procedure: as §1, §2

Tomato = test: Post-emergent herbicidal test, tomato; type: in vivo; set-up: key: 1: no perceptible injury; 2: intermediate degrees of injury; 3: intermediate degrees of injury; 4: intermediate degrees of injury; 5: the plant was dead; settings: 2500 parts per million, after ten days; for Post-emergent Herbicidal, Tomato: Table II; for Post Emergent Herbicidal, Tomato: Table III
Procedure: as §1, §2

Cotton = test: Post-emergent herbicidal test, cotton; type: in vivo; set-up: key: 1: no perceptible injury; 2: intermediate degrees of injury; 3: intermediate degrees of injury; 4: intermediate degrees of injury; 5: the plant was dead; settings: 2500 parts per million, after ten days; for Post-emergent Herbicidal, Cotton: Table II; for Post Emergent Herbicidal, Cotton: Table III
Procedure: as §1, §2

Soybean = test: Post-emergent herbicidal test, soybean; type: in vivo; set-up: key: 1: no perceptible injury; 2: intermediate degrees of injury; 3: intermediate degrees of injury; 4: intermediate degrees of injury; 5: the plant was dead; settings: 2500 parts per million, after ten days; for Post-emergent Herbicidal, Soybean: Table II; for Post Emergent Herbicidal, Soybean: Table III
Procedure: as §1, §2

Perennial rye grass = test: Preliminary herbicide seed germination test (pre-emergent), perennial rye grass; type: in vivo, Solium perenne; set-up: key: 5: no seedling emerged; 4: few seedlings emerged and/or very severe stunting; 3: moderate reduction in stand and/or moderate stunting.; 2: very slight reduction in stand and/or slight stunting; 1: no injury, seedlings appear no different with respect to stand or growth than untreated controls; settings: ten to twelve days after application
Procedure: as §1
(§3) The following seeds were used in this test:
Perennial rye grass--Solium perenne
(§4) Two […] mixtures were prepared as follows:
(§5) Each of the above mixtures was rolled separately in 5 gallon containers for approximately one-half hour on ball mill to insure uniform mixing of seeds and soil. For each compound four 3-inch pots were filled with soil to within 11/2 inches of top of pots. To two of these pots were added 70 cc. of Mixture I. To the remaining 2 pots were added 70 cc. of Mixture II. The seed-soil mixture was tamped firmly, and the pots were removed to the greenhouse and watered lightly. About 2 hours after planting, 25 milliliters of the test formulation were added to one pot containing Mixture I and one pot containing Mixture II. An equal volume of a water solution containing acetone and an emulsifier in the same concentration as the herbicidal mixture but without the candidate herbicide was also added to each of the soil-seed mixtures. These pots are used as check or control units. The test compounds were formulated by diluting the stock suspension with water to obtain the desired concentration of the compound in parts per million of the final formulation. Each compound was tested at the same concentration. […] Ratings were made according to the following designations: […]

Crabgrass = test: Preliminary herbicide seed germination test (pre-emergent), crabgrass; type: in vivo, Digitaria sanguinalis; set-up: key: 5: no seedling emerged; 4: few seedlings emerged and/or very severe stunting; 3: moderate reduction in stand and/or moderate stunting.; 2: very slight reduction in stand and/or slight stunting; 1: no injury, seedlings appear no different with respect to stand or growth than untreated controls; settings: ten to twelve days after application
Procedure: as §1, §3
Crabgrass--Digitaria sanguinalis
as §4, §5

[2] = tested on: Red root pigweed (Amaranthus); test: Preliminary herbicide seed germination test (pre-emergent), red root pigweed; type: in vivo, Amaranthus retroflexus; set-up: key: 5: no seedling emerged; 4: few seedlings emerged and/or very severe stunting; 3: moderate reduction in stand and/or moderate stunting.; 2: very slight reduction in stand and/or slight stunting; 1: no injury, seedlings appear no different with respect to stand or growth than untreated controls; settings: ten to twelve days after application
Procedure: as §1, §3
Red root pigweed--Amaranthus retroflexus
as §4, §5

Row | Compound | Miticidal, Adult [1] | Post-emergent Herbicidal, Bean (Bean) | Post-emergent Herbicidal, Corn (Corn) | Post-emergent Herbicidal, Tomato (Tomato) | Post-emergent Herbicidal, Cotton (Cotton) | Post-emergent Herbicidal, Soybean (Soybean) | Pre-emergent Herbicidal, Rye (Perennial rye grass; Table II) | Pre-emergent Herbicidal, Crabgrass (Crabgrass; Table II) | Pre-emergent Herbicidal, Amaranthus ([2]; Table II) | LC50 [1] [µg/mL] | Post Emergent Herbicidal, Bean (Bean) | Post Emergent Herbicidal, Corn (Corn) | Post Emergent Herbicidal, Tomato (Tomato) | Post Emergent Herbicidal, Cotton (Cotton) | Post Emergent Herbicidal, Soybean (Soybean) | Pre-emergent Herbicidal, Rye (Perennial rye grass; Table III) | Pre-emergent Herbicidal, Crabgrass (Crabgrass; Table III) | Pre-emergent Herbicidal, Amaranthus ([2]; Table III)
1 | CCCCCCCCCCCCCCCC(=O)OC1=C(c2cc(C)ccc2C)C(=O)C(C)C1 (stereo not drawn) [Compound 18] | A | 2 | 3 | 2 | 2 | 2 | 4 | 1 | 1 |  |  |  |  |  |  |  |  | 
2 | CCCCC(CC)C(=O)OC1=C(c2ccccc2C)C(=O)C2CCCCC12 (stereo not drawn) [drawing 22] |  |  |  |  |  |  |  |  |  | 7 (≈ 19 µM) | 1 | 5 | 1 | 2 | 2 | 3 | 2 | 2
3 | CCCCC(CC)C(=O)OC1=C(c2cc(C)ccc2C)C(=O)CC1 (stereo not drawn) [Compound 13] | A | 2 | 2 | 2 | 3 | 3 | 1 | 1 | 1 |  |  |  |  |  |  |  |  | 
4 | CC(=O)OC1=C(c2ccccc2C)C(=O)C2CCCCC12 (stereo not drawn) [Compound 19, 3-acetoxy-2-(2'-methylphenyl)-4,5,6,7,8,9-hexahydro-2-indenone] | A | 3 | 5 | 2 | 2 | 3 | 3 | 3 | 4 |  |  |  |  |  |  |  |  | 
5 | CCCCCCCCCCCCCCCC(=O)OC1=C(c2ccccc2C)C(=O)C2CCCCC12 (stereo not drawn) [drawing 17] |  |  |  |  |  |  |  |  |  | 20 (≈ 41.6 µM) | 1 | 2 | 1 | 2 | 2 | 4 | 3 | 2
6 | Cc1ccc(C)c(C2=C(OC(=O)C(C)C)CC(C)C2=O)c1 (stereo not drawn) [Compound 16] | B | 3 | 3 | 2 | 3 | 2 | 3 | 1 | 3 |  |  |  |  |  |  |  |  | 
